Key:
[1] = tested on: Mongolian gerbils with global brain Ischemia/Reperfusion (I/R); test: Clinical symptom (neurological function) score after global cerebral ischemia by bilateral carotid occlusion/reperfusion; type: in vivo; details: 4 hours after I/R
Text: For the evaluation of the neuroprotective effect of the mixture of high molecular weight substances, the object of the present invention, an experimental model of global cerebral ischemia by occlusion and reperfusion of the carotid arteries was used. The composition of High Molecular Weight Substances (HMWS) obtained in example 1 was subjected to a preclinical test with animals, in which its pharmacological effect was compared with the effects of pure extracts of Fatty Acids in the form of Salts (AcGS), fatty alcohols (AlcG) and high molecular weight aldehydes (AldG), which were administered in the dose equivalent to the proportion in which each one is present in 200 mg/kg of the HMWS Active Ingredient. Furthermore, the effect of HMWS was compared with the effect of pure free fatty acid (AcGL) extract administered at equal doses. […] Once the quarantine was over, the gerbils were distributed into 8 groups: a negative control that only received vehicle and cerebral ischemia (CI) was not induced and 7 groups with induced CI. […] All treatments were administered orally through intragastric intubation (0.5 mL/70 g body weight) 1 hour prior to induction of ischemia. […] For 6 minutes, the number of times the gerbils crossed the different quadrants with their front legs and the number of times they stopped or leaned was quantified.

[2] = tested on: plasma sulfhydryl (SH) groups; test: Plasma protein oxidation (sulfhydryl groups) after cerebral ischemia/reperfusion; type: in vivo, Mongolian gerbils; details: gerbils, plasma after I/R; oral HMWS 200, AcGS 132, AlcG 40, AldG 28, AcGL 200, ASA 60 mg/kg
Text: For the evaluation of the neuroprotective effect of the mixture of high molecular weight substances, the object of the present invention, an experimental model of global cerebral ischemia by occlusion and reperfusion of the carotid arteries was used. The composition of High Molecular Weight Substances (HMWS) obtained in example 1 was subjected to a preclinical test with animals, in which its pharmacological effect was compared with the effects of pure extracts of Fatty Acids in the form of Salts (AcGS), fatty alcohols (AlcG) and high molecular weight aldehydes (AldG), which were administered in the dose equivalent to the proportion in which each one is present in 200 mg/kg of the HMWS Active Ingredient. Furthermore, the effect of HMWS was compared with the effect of pure free fatty acid (AcGL) extract administered at equal doses. […] To determine lipid peroxidation, the formation of substances reactive to thiobarbituric acid (SRATB) was quantified (according to Ohkawa et al., 1979) in plasma, and was expressed as nmol malondialdehyde (MDA)/mg of protein. To determine protein oxidation, sulfhydryl (SH) groups were determined (technique described by Miao-Lin Hu, 1994). […] The absorbance of the supernatant was read at 412 nm. […] The protein concentration was determined by the modified Lowry method ([…], 1987).

SMILES: CC(=O)Oc1ccccc1C(=O)O [ASA, aspirin]
- Inhibition (%) of clinical symptom score ([1]; oral HMWS 200, AcGS 132, AlcG 40, AldG 28, AcGL 200, ASA 60 mg/kg, vs positive control): 86.6%
- SC score (clinical symptoms, McGraw scale 0-5) ([1]; single oral dose 1 hour before ischemia: HMWS (example 1) 200, AcGS 132, AlcG 40, AldG 28, AcGL 200, ASA 60 mg/kg, mean ± SEM, positive control 3.00 ± 0.52): 0.40 ± 0.35
- Inhibition (%) of SH groups increase [2]: 12%

Reference: patent US12703836B2, “Mixture of compounds with high molecular weights, obtained from sugar cane wax (Saccharum officinarum L.)” (CENTRO NACIONAL DE INVESTIGACIONES CIENTÍFICAS, priority 2021, dated 2026)
